Measurements reported in patent US11938136B2, “Compositions for treating spinal muscular atrophy” (Hoffmann-La Roche Inc., priority 2015, dated 2024).
Where two headings read alike, the source gives them in different places.

Legend:
[1] = system: SMN protein; experiment: SMN protein in spinal motor neurons derived from SMA patient iPSCs (immunostaining); type: cell-based, human
Procedure: (§1) (A) SMN2 splicing in SMA Type 1 fibroblasts. (B) SMN protein in SMA Type 1 fibroblasts. (C) SMN protein in SMA Type 1 motor neurons. (D) SMN1 and SMN2 splicing in whole blood derived from HV. Fibroblasts from SMA Type 1 patients were cultured for 24 hours (A) or 48 hours (B); motor neurons from SMA Type 1 patient iPSCs (induced Pluripotent Stem Cells) were cultured for 72 hours (C) and whole blood cells from healthy volunteers (HV) for 4 hours (D) in the presence of the compound of Example 20. SMN splicing was assessed by RT-PCR, and SMN protein levels were assessed by homogenous time-resolved fluorescence (HTRF) in fibroblast lysates, and by immunostaining for SMN in motor neurons. Data represent means standard error (SEM) of 3 evaluations per data point and are expressed as fold change vs. untreated controls.

[2] = system: SMN2 splicing; experiment: Ex vivo whole blood assay, SMN2 splicing; type: cell-based, human; details: whole blood cells from healthy volunteers, 4 hours
Procedure: as §1, with “controls. To further assess SMN2 splicing as a potential blood biomarker, an ex vivo assay was developed using whole blood cells from healthy volunteers in which SMN1 and SMN2 splicing was assessed after 4 hours treatment with the compound of Example 20 (at this time point, maximal splicing changes were achieved).” for “controls.”

[3] = system: SMN protein; experiment: SMN protein in brain and quadriceps muscle of C/C-allele mice (HTRF); type: in vivo, mouse
Procedure: (A) SMN protein in brains of C/C-allele mice. (B) SMN protein in brains of SMNΔ7 mice. (C) SMN protein in quadriceps muscle of C/C-allele mice. (D) SMN protein in quadriceps muscle of SMNΔ7 mice. C/C-allele mice and SMNΔ7 mice were treated with the compound of Example 20. One hour after the last dose, brains and quadriceps muscles were collected and levels of SMN protein were assessed by HTRF. Data represent means SEM of 5-6 animals per group and are expressed as fold change vs. vehicle-treated controls. *=p<0.05, **=p<0.01, ***=p<0.001 vs. untreated controls.
In vivo, the compound of Example 20 increases SMN protein in the brain and muscle in the severe SMNΔ7 model and the milder C/C-allele model, carrying human SMN2 transgenes. Adult C/C-allele mice were treated for 10 days with vehicle or the compound of Example 20 (1, 3 or 10 mg/kg PO, daily), and 3 days old (P3) SMNΔ7 mice were treated for 7 days with vehicle or the compound of Example 20 (0.1, 0.3, 1 or 3 mg/kg IP, daily). […] In SMNΔ7 mice, the SMN protein increase was only partial in both brain and muscle, reaching approximately 43% (brain) and 55% (muscle) of protein levels in heterozygous mice.

[4] = system: FoxM1; experiment: Alternative splicing of FoxM1 in SMA Type I patient fibroblasts (RT-qPCR); type: cell-based; details: Homo sapiens, Fibroblast, 24 hours
Procedure: FIG. 5. Alternative Splicing of FoxM1 in vitro SMA Type I patient fibroblasts were treated with the compound of Example 20 for 24 hours, and FoxM1 full-length (FL) and exon 9-lacking (Δ9) mRNAs were analyzed by RT-qPCR. Data represent means SEM of 6 repetitions and are expressed as fold change vs. untreated controls.
FoxM1, a gene alternatively spliced by other splicing modifier compounds, encodes a cell cycle regulator. […] 2007 February; 3(1):1-3. Laoukili et al, Biochim Biophys Acta. 2007 January; 1775(1):92-102]. […] Increased expression of the FoxM1A isoform, together with decreased expression of FoxM1 isoforms lacking exon 9, has the capability to disturb and inhibit cell cycle progression if splicing changes are at a level that is biologically significant. Thus, the compound of Example 20 acts in a similar way on the SMN2 and FoxM1 splicing machinery, but with opposing outcomes with regard to protein function and at varying degrees. The EC50 for MADD, a gene also identified as affected by splicing modifiers including the compound of Example 20 at high concentrations and known to be involved in apoptotic processes, is not known.

Cc1cn2nc(-c3cc(=O)n4cc(N5CCNC6(CC6)C5)ccc4n3)cc(C)c2n1 [Example 20, 7-(4,7-diazaspiro[2.5]octan-7-yl)-2-(2,8-dimethylimidazo[1,2-b]pyridazin-6-yl)pyrido[1,2-a]pyrimidin-4-one]
maximal increase in SMN protein above untreated cells ([1]; motor neurons from SMA patient iPSCs): 60-80%
EC50 ([1]; spinal motor neurons from SMA patient iPSCs, 72 hours): 182 ± 114 nM
concentration at which effects on splicing were evident [2]: above 100 nM
effect on SMN2 splicing [2]: dose-dependently altered towards inclusion of exon 7
SMN levels in muscle compared with heterozygous mice ([3]; C/C-allele mice, 10 mg/kg dose): no different from those in heterozygous mice
maximum increase of SMN protein levels in brain and muscle tissue ([3]; adult C/C-allele mice, 10 mg/kg PO daily, 10 days): 2-3 fold
EC50 ([4]; read-out: EC50 for FoxM1 FL mRNA): 67 ± 32 nM
EC50 ([4]; read-out: EC50 for FoxM1 Δ9 mRNA): 139 ± 43 nM
